According to US20200163984A1, “USE OF ISOVALERYL SPIRAMYCIN I, II AND/OR III IN MANUFACTURING MEDICAMENT FOR TREATING AND/OR PREVENTING TUMOR, AND MEDICAMENT” (SHENYANG FUYANG PHARMACEUTICAL TECHNOLOGY CO., LTD., priority 2017, published 2020):

Tests used:
[1] = Thymus index and spleen index of H22 liver cancer tumor-bearing mice
Experimental: (§1) In the H22 liver cancer model, the mice inoculated with the tumor were randomly divided into groups with 10 mice in each group on the next day of inoculation. The groups included: a model control group, a positive drug cyclophosphamide control group (CTX, 26 mg/kg), isovaleryl spiramycin I groups with doses of 13, 26 and 52 mg/kg; isovaleryl spiramycin II groups with doses of 13, 26 and 52 mg/kg; isovaleryl spiramycin III groups with doses of 13, 26 and 52 mg/kg. Each group was continuously administered intragastrically for 7 days with a dose of 20 ml/kg.

[2] = test system: NK cell activity of spleen cells against K562 cells; assay: Natural killer (NK) cell activity of Lewis lung cancer tumor-bearing mice; assay type: in vivo, C57BL/6 mouse
Experimental: as §1, with “the Lewis lung” for “the H22 liver”, “group” for “group on”, “(CTX, 30” for “(CTX, 26”, “for 15” for “for 7”
(§2) The serum-free RPMI 1640 medium was placed in a dish, and then the dish was placed on ice. The spleen was aseptically taken and gently ground with a sterile glass slide to prepare a single cell suspension. The single cell suspension was filtered with a double-layer sterile gauze, washed twice with serum-free RPMI1640 medium, and centrifuged at 1,500 rpm for 5 min to remove the obtained supernatant. 2 mL of red blood cell lysate was added to the treated suspension, the mixture was allowed to stand for 2 min, and then 8 mL of RPMI 1640 medium was added, centrifuging was performed at 1,500 rpm for 5 min to remove the obtained supernatant, and then washing was performed twice with the RPMI 1640 medium. […] A single cell suspension was prepared by using a RPMI 1640 medium containing 10% fetal bovine serum.
The spleen cell suspension was taken, and the cell density was adjusted to 1×10^7/mL (effector cells). A suspension of K562 cells was prepared with a cell density of 1×10^5/mL (target cells). Each mouse was set with: A. effector cells:target cell well (quantity ratio 20:1) to which […] of spleen cell suspension and 100 μL of K562 cell suspension were added; B. an effector cell control well to which 100 μL of spleen cell suspension and 100 μL of RPMI 1640 medium were added; and C. a target cell control well to which 100 μL of K562 cell suspension and 100 μL of RPMI 1640 medium were added. The above cells were added to a 96-well plate. After the 96-well plate was transferred to a saturated humidity condition with a volume fraction of 5% CO2 at 37° C. for incubation for 22 h, 10 μL of MTT solution (5 g/L) was added to each well, and incubation was continued to be performed for 4 hours under the same conditions, then the culture was terminated. 100 μl of a triple solution (SDS 10 g, 10M HCl 0.1 mL, isobutanol 5 mL, diluted with distilled water to 100 mL) was added, and the plate was shaken for 10 min to fully dissolve the crystals, and the Optical Density (OD) of each well at 490 nm was measured, and the NK cell activity was calculated. NK cell activity (%)=[TO−(S−E)]/TO×100%, wherein TO is the Optical Density of the target cell control well, S is the Optical Density of the effector cell control well, and E is the Optical Density of the effector cell.

[3] = test system: spleen lymphocytes (ConA, LPS stimulation); assay: Spleen lymphocyte proliferation activity of Lewis lung cancer tumor-bearing mice; assay type: in vivo, C57BL/6 mouse; conditions: for lymphocyte activity compared with the control group: Lewis tumor-bearing mice; for B Lymphocyte Proliferation Activity (%) / T Lymphocyte Proliferation Activity (%): n = 6
Experimental: as §1, with “the Lewis lung” for “the H22 liver”, “group” for “group on”, “(CTX, 30” for “(CTX, 26”, “for 15” for “for 7”
as §2
The spleen cell suspension was taken, and the cell density was adjusted to 1×10^7/mL. Each mouse was set with: A. a control well: 100 μL of RPMI 1640 medium was added; B. a concanavalin A (ConA) stimulation well: 100 μL (10 mg/L) of concanavalin A (ConA) solution was added; and C. a bacterial endotoxin (LPS) stimulating well: 100 μL (20 mg/L) of bacterial endotoxin (LPS) solution was added. The above cells were added to a 96-well plate, and then 100 μL of spleen cell suspension was added to each of the above wells. After the culture plate was transferred to a saturated humidity condition with a volume fraction of 5% CO2 at 37° C. for incubation for 72 h, 10 μL of MTT solution (5 g/L) was added to each well, and incubation was continued to be performed for 4 hours under the same conditions, then the culture was terminated. 100 μl of a triple solution (SDS 10 g, 10M HCl 0.1 mL, […] 5 mL, diluted with distilled water to 100 mL) was added, and the plate was shaken for 10 min to fully dissolve the crystals. The Optical Density (OD) of each well was measured at 570 nm, and the lymphocyte proliferation rate was calculated. Lymphocyte proliferation rate (%)=[(T-C)/C]×100%, wherein T was the Optical Density of the stimulation well, and C is the Optical Density of the control well.

[4] = 13, 26 and 52 mg/kg, P<0.05, P<0.01

| Structure (SMILES) | Spleen Index (%) ([1]; dose 13 mg/kg) | Thymus Index (%) ([1]; dose 13 mg/kg) | Spleen Index (%) ([1]; dose 26 mg/kg) | Thymus Index (%) ([1]; dose 26 mg/kg) | Spleen Index (%) ([1]; dose 52 mg/kg) | Thymus Index (%) ([1]; dose 52 mg/kg) | NK Cell Activity ([2]; 13 mg/kg) [%] | NK Cell Activity ([2]; 26 mg/kg) [%] | NK Cell Activity ([2]; 52 mg/kg) [%] | NK cell activity compared with the control group ([2]; 13, 26 and 52 mg/kg, P<0.01) | lymphocyte activity compared with the control group [3, 4] | B Lymphocyte Proliferation Activity (%) ([3]; dose 13 mg/kg) | T Lymphocyte Proliferation Activity (%) ([3]; dose 13 mg/kg) | B Lymphocyte Proliferation Activity (%) ([3]; dose 26 mg/kg) | T Lymphocyte Proliferation Activity (%) ([3]; dose 26 mg/kg) | B Lymphocyte Proliferation Activity (%) ([3]; dose 52 mg/kg) | T Lymphocyte Proliferation Activity (%) ([3]; dose 52 mg/kg) | thymus index and spleen index compared with the control group ([1]; H22 tumor-bearing mice, cyclophosphamide, P<0.01) | NK cell activity compared with the control group ([2]; cyclophosphamide, P<0.05) | lymphocyte activity compared with the control group ([3]; cyclophosphamide, P<0.05) |
| --- | --- | --- | --- | --- | --- | --- | --- | --- | --- | --- | --- | --- | --- | --- | --- | --- | --- | --- | --- | --- |
| CCC(=O)O[C@@H]1CC(=O)O[C@H](C)C/C=C/C=C/[C@H](O[C@H]2CC[C@H](N(C)C)[C@@H](C)O2)[C@H](C)C[C@H](CC=O)[C@H](O[C@@H]2O[C@H](C)[C@@H](O[C@H]3C[C@@](C)(O)[C@@H](OC(=O)CC(C)C)[C@H](C)O3)[C@H](N(C)C)[C@H]2O)[C@H]1OC [Isovaleryl spiramycin III, isovaleryl spiramycin III] | 0.68 ± 0.15 | 0.15 ± 0.06 | 0.66 ± 0.21 | 0.15 ± 0.05 | 0.65 ± 0.26 | 0.13 ± 0.02 | 48.9 ± 6.6 | 46.0 ± 11.8 | 49.8 ± 6.2 | significantly increase | significantly increase | 33.91 ± 2.65 | 20.17 ± 5.18 | 34.69 ± 0.34 | 18.51 ± 2.60 | 32.28 ± 1.27 | 18.25 ± 1.89 | – | – | – |
| COC1C(OC(C)=O)CC(=O)OC(C)CC=CC=CC(OC2CCC(N(C)C)C(C)O2)C(C)CC(CC=O)C1OC1OC(C)C(OC2CC(C)(O)C(OC(=O)CC(C)C)C(C)O2)C(N(C)C)C1O (centres unmarked) [Isovaleryl spiramycin II, isovaleryl spiramycin II] | 0.59 ± 0.24 | 0.12 ± 0.05 | 0.68 ± 0.24 | 0.16 ± 0.03 | 0.64 ± 0.17 | 0.17 ± 0.10 | 47.2 ± 9.2 | 47.0 ± 5.5 | 43.1 ± 7.3 | significantly increase | significantly increase | 39.88 ± 3.57 | 16.87 ± 3.28 | 32.68 ± 2.68 | 15.82 ± 1.68 | 35.94 ± 3.80 | 19.28 ± 2.35 | – | – | – |
| O=P1(N(CCCl)CCCl)NCCCO1 (centres unmarked) [Cyclophosphamide, cyclophosphamide, reference compound] | – | – | 0.38 ± 0.09 | 0.04 ± 0.02 | – | – | – | 35.4 ± 6.6 | – | – | – | – | – | 11.63 ± 4.68 | 13.24 ± 3.72 | – | – | significantly lower | significantly lower | significantly inhibited |
| CO[C@@H]1[C@@H](O[C@@H]2O[C@H](C)[C@@H](O[C@H]3C[C@@](C)(O)[C@@H](OC(=O)CC(C)C)[C@H](C)O3)[C@H](N(C)C)[C@H]2O)[C@@H](CC=O)C[C@@H](C)[C@@H](O[C@H]2CC[C@H](N(C)C)[C@@H](C)O2)/C=C/C=C/C[C@@H](C)OC(=O)C[C@H]1O [Isovaleryl spiramycin I, isovaleryl spiramycin I] | 0.72 ± 0.07 | 0.15 ± 0.07 | 0.60 ± 0.15 | 0.14 ± 0.01 | 0.86 ± 0.25 | 0.12 ± 0.04 | 52.5 ± 9.2 | 67.0 ± 12.1 | 39.8 ± 6.8 | significantly increase | significantly increase | 41.63 ± 7.06 | 25.27 ± 8.20 | 44.81 ± 4.41 | 36.24 ± 2.15 | 32.71 ± 1.84 | 22.26 ± 4.33 | – | – | – |
